Patent US20050026979A1, “Methods for treating inflammation and inflammation-associated diseases with a statin and ether” (priority 2003, published 2005)

Test system: monosodium iodoacetate ("MIA")-induced knee joint arthritis
Test: Monosodium iodoacetate (MIA)-induced osteoarthritis joint pain model, acute dosing paradigm (hind paw weight distribution, incapacitance tester)
Assay type: in vivo, rat (male Wistar)
Conditions: for Change in Hind Paw Weight Distribution: Day 7 post-MIA, mean, n=6
Method: Monosodium Iodoacetate (“MIA”)-Induced Osteoarthritis:
Male Wistar rats (175-200 g) were housed in solid bottom isolator cages, […], with corncob bedding on a 12 hour:12 hour light:dark cycle. Animals were fed standard rat chow with water available ad libitum.
The rats were anesthetized with 5% volume/volume (“v/v”) isoflurane gas and maintained with 2% v/v isoflurane gas. The anesthetized rats were given a single intra-articular injection of 1 mg of MIA through the infrapatellar ligament of the right knee. MIA was dissolved in physiologic saline and administered in a volume of 50 μL. The contralateral control knee was injected with 50 μL of physiologic saline. Administration of isoflurane gas was discontinued, and the rats became fully conscious about 5 minutes later.
Shifts in hind paw weight distribution from the right to the left hind paws supporting the right (arthritic) and the left (contralateral control) hind leg knee joints were utilized as an index of joint pain and as a measure of compound efficacy. An incapacitance tester (Model 2KG, Linton Instrumentation, UK) was employed for determination of hind paw weight distribution. Each data point is the mean of three readings of 5 seconds duration.
The acute dosing paradigm used herein relates to osteoarthritis signs such as mobility and joint function and osteoarthritis symptoms such as joint pain. In this dosing paradigm, changes in hind paw weight distribution were determined early on Day 7 post-MIA injection, as described previously, to establish a baseline pain reading. […] Changes in hind paw weight distribution were determined 2, 4 and 6 hours post-compound administration.
MIA was injected into the right knee and saline into the left knee of all rats on Day 0. […] Two, four, and six hours later, the rats were re-assessed.
Statistically significant differences were determined by one-way ANOVA followed by Dunnett's multiple comparisons procedure. Data are expressed as mean±SEM. N=6 rats per group.

CC(C)(CCCCOCCCCC(C)(C)C(=O)[O-])C(=O)[O-].[Ca+2] [Compound A, 6-(5-carboxy-5-methyl-hexyloxy)-2,2-dimethyl-hexanoic acid calcium salt]
Change in Hind Paw Weight Distribution (2 hr post-dose, Compound A 10 mg/kg PO): 21 g
Change in Hind Paw Weight Distribution (4 hr post-dose, Compound A 10 mg/kg PO): 15 g
Change in Hind Paw Weight Distribution (6 hr post-dose, Compound A 10 mg/kg PO): 21 g
Effect on shift in weight bearing potential (joint pain) versus vehicle, in words (Compound A 10 mg/kg PO, 2, 4 and 6 hour post-dose time points): altered the shift in weight bearing potential (joint pain) in arthritic rats at the 2, 4 and 6 hour post-dose time points in a statistically significant manner
Change in Hind Paw Weight Distribution (Pre-Dose (Baseline), group later given Compound A 10 mg/kg PO): 32 g
